This note sets out measurements from PMC3014376 (Vaccine, 2010).

Residues, ends and D or L forms follow the SMILES beside them. A value given as a limit tells only on which side of the number the result lay.

Targets include HLA-A*6802 (Homo sapiens, UniProt P04439, A269V/D140Y/D185E/E176V/E277Q/E87N/F33Y/G231S/I121R/I166T/I218V/L180W/L300P/L318F/N151K/P208A/P217A/Q86R/R138H/R169H/S129P/T345S/V36M); HLA-A*0202 (Homo sapiens, UniProt P04439, D140Y/D185E/D98H/E176V/E277Q/G131W/G231S/I119L/I121R/I166T/I218V/L180W/L300P/L318F/N151K/N90K/P208A/P217A/Q67R/Q86G/Q94H/R138H/R169H/T345S); HLA-A*0206 (Homo sapiens, UniProt P04439, D140Y/D185E/D98H/E176V/E277Q/F33Y/G131W/G231S/I119V/I121R/I166T/I218V/L300P/L318F/N151K/N90K/P208A/P217A/Q86G/Q94H/R138H/R169H/T345S).

Holding throughout (assay): MHC-peptide binding assay

What is called IC50 is the midpoint of a concentration-inhibition curve. Read a high IC50 as weaker potency. Turning to `CC[C@H](C)[C@H](NC(=O)[C@H](CCSC)NC(=O)[C@@H](N)Cc1ccccc1)C(=O)N[C@@H](C)C(=O)N[C@@H](Cc1ccccc1)C(=O)N[C@H](C(=O)N[C@@H](CO)C(=O)N[C@@H](CS)C(=O)N[C@@H](Cc1ccccc1)C(=O)N[C@@H](C)C(=O)O)[C@@H](C)CC` [SAG2D180–189] (H-FMIAFISCFA-OH), the IC50 amounted to 397 nM on HLA-A*6802, 56 nM at HLA-A*0202 and 112 nM on HLA-A*0206.
On to `CC(C)C[C@H](NC(=O)CNC(=O)[C@H](CC(C)C)NC(=O)[C@H](CC(C)C)NC(=O)[C@@H](N)Cc1ccccc1)C(=O)N[C@@H](CC(C)C)C(=O)N[C@H](C(=O)N[C@@H](Cc1c[nH]cn1)C(=O)N[C@H](C(=O)O)C(C)C)C(C)C` [SAG3_375–383] (H-FLLGLLVHV-OH), for which the values for the IC50 on HLA-A*6802, at HLA-A*0202 and at HLA-A*0206 were 173 nM, 37 nM and 9.9 nM, respectively.
`CC(C)C[C@H](NC(=O)CN)C(=O)N[C@@H](C)C(=O)N[C@@H](C)C(=O)N[C@@H](C)C(=O)N[C@H](C(=O)N[C@H](C(=O)N[C@@H](C)C(=O)N[C@H](C(=O)O)C(C)C)C(C)C)C(C)C` [SPA82–90] (H-GLAAAVVAV-OH): the values for the IC50 on HLA-A*6802 and at HLA-A*0206 were 263 nM and 55 nM, respectively.
On to `CC[C@H](C)[C@H](N)C(=O)N[C@H](C(=O)N[C@@H](CCSC)C(=O)NCC(=O)N[C@@H](CO)C(=O)N[C@@H](CC(C)C)C(=O)N[C@@H](Cc1ccccc1)C(=O)N[C@@H](Cc1ccccc1)C(=O)N[C@H](C(=O)O)C(C)C)[C@@H](C)O` [SPA12–20] (H-ITMGSLFFV-OH), for which the IC50 on HLA-A*6802 is 1.1 nM; at HLA-A*0202, 0.64 nM; on HLA-A*0206, 0.26 nM.
For the compound `CC[C@H](C)[C@H](NC(=O)[C@H](CO)NC(=O)[C@@H](NC(=O)[C@@H](NC(=O)[C@H](CCSC)NC(=O)[C@@H](N)Cc1ccccc1)[C@@H](C)CC)C(C)C)C(=O)N[C@@H](CO)C(=O)N[C@@H](CC(C)C)C(=O)N[C@H](C(=O)O)C(C)C` [SAG2X351–359] (H-FMIVSISLV-OH), the IC50 amounted to 48 nM at HLA-A*6802, 1.8 nM on HLA-A*0202 and 6.2 nM at HLA-A*0206.
Consider `CC[C@H](C)[C@H](NC(=O)[C@@H](NC(=O)[C@@H](N)Cc1ccccc1)C(C)C)C(=O)N[C@@H](Cc1ccccc1)C(=O)N[C@@H](C)C(=O)N[C@@H](CS)C(=O)N[C@@H](CC(N)=O)C(=O)N[C@@H](Cc1ccccc1)C(=O)N[C@H](C(=O)O)C(C)C` [SAG2X44–52] (H-FVIFACNFV-OH), for which the IC50 on HLA-A*6802 is 1.2 nM; at HLA-A*0206, 5.6 nM.
For the compound `CC[C@H](C)[C@H](NC(=O)[C@@H](NC(=O)[C@H](CC(C)C)NC(=O)[C@H](CC(C)C)NC(=O)[C@H](CO)NC(=O)[C@H](CC(C)C)NC(=O)[C@H](CO)NC(=O)[C@H](CC(C)C)NC(=O)[C@@H](N)Cc1ccccc1)C(C)C)C(=O)O` [SAG2C38–46] (H-FLSLSLLVI-OH), the concentration for half-maximal inhibition (IC50) on HLA-A*6802 is 9830 nM; on HLA-A*0206, above 10000 nM.
With `CC[C@H](C)[C@H](NC(=O)[C@H](Cc1ccc(O)cc1)NC(=O)[C@H](CC(=O)O)NC(=O)[C@@H](NC(=O)[C@H](CC(C)C)NC(=O)[C@@H](N)Cc1ccccc1)[C@@H](C)O)C(=O)N1CCC[C@H]1C(=O)NCC(=O)N[C@@H](C)C(=O)O` [SAG3_136–144] (H-FLTDYIPGA-OH), the values for the IC50 at HLA-A*6802, on HLA-A*0202 and at HLA-A*0206 were 2100 nM, 7.1 nM and 1.2 nM, respectively.
